# Experimental data published in article PMC10180065, “Mechanistic Studies of Arene–Ruthenium(II) Complexes with Carbothioamidopyrazoles as Alternative Cancer Drugs” (Molecules, 2023).
# Where two headings read alike, the source gives them in different places.
# What was measured:
# HCC38 = experiment: MTT cytotoxicity, HCC38; format: cell-based, human; details: 48 h incubation, read-out: Cytotoxic effect, IC50
# Procedure: (§1) Cytotoxicity was evaluated against fifteen adherent human cancer cell lines using the MTT test: colorectal adenocarcinoma cells Caco2 (ATCC® HTB-37™), colorectal adenocarcinoma cells HT29 (ATCC® HTB-38™), colon colorectal carcinoma HCT116 (ATCC® CCL-247™), colon adenocarcinoma COLO205 (ATCC® CCL-222™), colorectal adenocarcinoma SW620 (ATCC® CCL-227™), colorectal adenocarcinoma grade IV LoVo (ATCC® CCL-229™), hepatocellular carcinoma Hep 3b (ATCC® HB-8064™), endometrium adenocarcinoma HEC1A (ATCC® HTB-112™), Ishikawa (99040201; Sigma–Aldrich Sigma, St. Louis, MO, USA), cervical adenocarcinoma cells HeLa (ATCC® CCL-2™), lung epithelial carcinoma A549 (ATCC® CRM-CCL-185™), breast epithelial adenocarcinoma cell positive for estrogen and progesterone receptors MCF7 (ATCC® HTB-22™) and negative for expression of estrogen receptor HCC38 (ATCC® CRL-2314™), acute promyelocytic leukemia HL-60 (ATCC® CCL-240™), skin melanoma WM115 (ATCC® CRL-1676™), and 1 suspension cancer cell line: acute lymphoblastic leukemia NALM6 (purchased from the German Collection of Microorganisms and Cell Cultures). HT29, NALM6, HCC-38 and HL-60 cells were cultured in RPMI 1640 medium (Thermo Fisher Scientific, Waltham, MA, USA) supplemented with 10% fetal bovine serum and antibiotic (gentamicin 25 μg ml^−1) (Gibco, Grand Island, New York, NY, USA). For the remaining tumor cell lines, Dulbecco’s minimal essential medium (DMEM, Lonza, Visp, Switzerland) supplemented with 10% fetal bovine serum and antibiotic instead of RPMI 1640 was used. In addition, Human Microvascular Endothelial Cells (HMEC1), which were obtained from the American Type Culture Collection (Manassas, VA, USA), were used as a model of normal cells. HMEC-1 were cultured in MCDB131 medium (Corning Life Sciences, Corning, NY, USA), supplemented with 10% fetal bovine serum, 10 ng/mL Epidermal Growth Factor (Millipore, Burlington, MA, USA) and 10 mM glutamine (Corning Life Sciences). All cells were grown at 37 °C in humidified atmosphere of 5% CO2 in air. The exponential growth of cells was maintained by regular passaging at 90% confluence three times a week using 0.025% trypsin/EDTA (Gibco, Grand Island, New York, NY, USA).
# (§2) The cytotoxicity was tested by a standard MTT [3-(4,5-dimethylthiazol-2-yl)-2,5-diphenyltetrazolium bromide] (Sigma, St. Louis, MO, USA) microplate cell viability assay. The anticancer activity of the investigated compounds was evaluated in vitro on the basis of their ability to inhibit the proliferation of various cancer cells. Exponentially growing cells were seeded a day before the experiment into a 96-well microplate (Nunc, Roskilde, Denmark) at a density up to 6–8 × 10^3 cells/mL (depending on the cell line) and exposed to the test compounds at a wide range of concentrations for 48 h. Subsequently, various concentrations of the studied compounds (10^−7–10^−5 M) freshly prepared in DMSO (final concentration of <0.1% DMSO) and diluted with complete culture medium were added. After 48 h incubation, the cells were immediately subjected to a cell viability assay. At this time point, the number of viable cells in each well was estimated by the MTT test. Briefly, 50 µL (5 mg/mL final concentration) of MTT was added to each microplate well. This procedure was then followed by a three- to four-hour incubation at 37 °C. After incubation, MTT solution was replaced with 100 µL DMSO/well, which solubilized the formazan crystals formed by the dehydrogenases of metabolically active cells. Purple formazan absorbance was measured spectrophotometrically at 570 nm.
# Ishikawa = experiment: MTT cytotoxicity, Ishikawa; format: cell-based, human; details: 48 h incubation, read-out: Cytotoxic effect, IC50
# Procedure: as §1, §2
# LoVo = experiment: MTT cytotoxicity, LoVo; format: cell-based, human; details: 48 h incubation, read-out: Cytotoxic effect, IC50
# Procedure: as §1, §2
# [1] = system: human microvascular endothelial cell line HMEC1; experiment: MTT cytotoxicity, normal endothelial cells HMEC1; format: cell-based
# Procedure: as §1, §2
# HEC1A = experiment: MTT cytotoxicity, HEC1A; format: cell-based, human; details: 48 h incubation, read-out: Cytotoxic effect, IC50
# Procedure: as §1, §2
# Lipophilicity by RP-TLC = format: physicochemical; design: key: RM = log(1/Rf − 1), Rf = a/b; details: eluent AcCN: H2O at 30–70% v/v, 22 °C
# Procedure: All the experimental solutions of standard substances (0.1 mg/mL) were prepared by dissolving ligands (1a–1d) or ruthenium complexes (2a/3a–2d/3d) in ethanol. Commercially-available octadecyl-modified silica aluminum sheets (20 × 20 cm) were cut into 5 × 10 cm plates. The plates were manually spotted with 1.0 μL of freshly prepared solutions using automatic pipets, 5 mm from each edge. The chromatograms for all compounds (1a/2a/3a–1d/2d/3d) were developed using a horizontal developing chamber and the solvent migration distance was about 4.5 cm. The plates were visually inspected under UV light at 254 nm. Each zone was clearly marked and its distance was manually measured. The RP-TLC analyses of lipophilicity were performed at ambient temperature (22 °C). In this experiment, all measurements were performed in triplicate and the obtained results were used in further calculations. The acetonitrile and water mixtures for ligands 1a–1d and arene–ruthenium(II) complexes 2a/3a–2d/3d were used as mobile phases, with […] content increasing in the range of 30–70% v/v, at 5% intervals. Values of the chromatographic retention coefficient Rf (as shown Formula (1)) and RM (as shown Formula (2)), based on received chromatograms, were calculated and converted as follows:(1) Rf=a/b (2) RM=log1/Rf−1
# SW620 = experiment: MTT cytotoxicity, SW620; format: cell-based, human; details: read-out: Cytotoxic effect, IC50
# Procedure: as §1, §2
# WM115 = experiment: MTT cytotoxicity, WM115; format: cell-based, human; details: read-out: Cytotoxic effect, IC50
# Procedure: as §1, §2
# Colo205 = experiment: MTT cytotoxicity, Colo205; format: cell-based, human; details: read-out: Cytotoxic effect, IC50
# Procedure: as §1, §2
# Caco2 = experiment: MTT cytotoxicity, Caco2; format: cell-based, human; details: read-out: Cytotoxic effect, IC50
# Procedure: as §1, §2
# Hep 3b = experiment: MTT cytotoxicity, Hep 3b; format: cell-based, human; details: 48 h incubation, read-out: Cytotoxic effect, IC50
# Procedure: as §1, §2
# MCF7 = experiment: MTT cytotoxicity, MCF7; format: cell-based, human; details: 48 h incubation, read-out: Cytotoxic effect, IC50
# Procedure: as §1, §2
# HL60 = experiment: MTT cytotoxicity, HL60; format: cell-based, human; details: read-out: Cytotoxic effect, IC50
# Procedure: as §1, §2
# A549 = experiment: MTT cytotoxicity, A549; format: cell-based, human; details: 48 h incubation, read-out: Cytotoxic effect, IC50
# Procedure: as §1, §2
# HT29 = experiment: MTT cytotoxicity, HT29; format: cell-based, human; details: read-out: Cytotoxic effect, IC50
# Procedure: as §1, §2
# NALM6 = experiment: MTT cytotoxicity, NALM6; format: cell-based, human; details: read-out: Cytotoxic effect, IC50
# Procedure: as §1, §2
# Hela = experiment: MTT cytotoxicity, Hela; format: cell-based, human; details: 48 h incubation, read-out: Cytotoxic effect, IC50
# Procedure: as §1, §2
# [2] = Homo sapiens, SW-620, 48 h incubation
# [3] = Homo sapiens, WM-115, 48 h incubation
# [4] = Homo sapiens, COLO 205, 48 h incubation
# [5] = Homo sapiens, Caco-2, 48 h incubation
# [6] = Homo sapiens, HL-60, 48 h incubation
# [7] = Homo sapiens, HT-29, 48 h incubation
# [8] = Homo sapiens, NALM-6, 48 h incubation
Structure (SMILES),IC50 (HCC38) [µM],IC50 (Ishikawa) [µM],IC50 (LoVo) [µM],IC50 (HEC1A) [µM],"Lipophilicity, RM (Lipophilicity by RP-TLC)",IC50 (HCC38; Homo sapiens) [µM],IC50 (Ishikawa; Homo sapiens) [µM],IC50 (LoVo; Homo sapiens) [µM],"IC50 (HEC1A; Homo sapiens, HEC-1-A) [µM]",IC50 (SW620; [2]) [µM],IC50 (WM115; [3]) [µM],IC50 (Colo205; [4]) [µM],IC50 (Caco2; [5]) [µM],"IC50 (Hep 3b; Homo sapiens, Hep3B) [µM]",IC50 (MCF7; Homo sapiens) [µM],IC50 (HL60; [6]) [µM],IC50 (A549; Homo sapiens) [µM],IC50 (HT29; [7]) [µM],IC50 (NALM6; [8]) [µM],IC50 (Hela; Homo sapiens) [µM],other results
Cc1cc(C)n(C(N)=S)n1.Cc1ccc(C(C)C)cc1.[Cl-].[Cl][Ru+] [2a],84.4 ± 1.1,90.7 ± 3.7,> 200,62.3 ± 0.9,2.40,,,,,,,,,,,,,,,,"IC50 ([1]; HMEC1 normal endothelial cells, 48 h incubation, read-out: Cytotoxic effect, IC50): 156 ± 4.9 µM; IC50 for HMEC-1 higher than for cancer cells (selectivity) ([1]; HMEC-1 vs cancer cells): 3–5 times; IC50 (SW620; 48 h incubation): 118 ± 6.1 µM; IC50 (WM115; 48 h incubation): 60.2 ± 6.3 µM; IC50 (Colo205; 48 h incubation): 110 ± 6.7 µM; IC50 (Caco2; 48 h incubation): > 200 µM; IC50 (Hep 3b): > 200 µM; IC50 (MCF7): > 200 µM; IC50 (HL60; 48 h incubation): 88.9 ± 6.1 µM; IC50 (A549): 121 ± 3.6 µM; IC50 (HT29; 48 h incubation): 111 ± 4.9 µM; IC50 (NALM6; 48 h incubation): 51.6 ± 5.7 µM; IC50 (Hela): > 200 µM"
Cc1cc(O)n(C(N)=S)n1.Cc1ccc(C(C)C)cc1.F[P-](F)(F)(F)(F)F.[Cl-].[Ru+2] [3d],188 ± 6.4,> 200,110 ± 6.9,128 ± 2.1,2.39,,,,,,,,,,,,,,,,IC50 (SW620; 48 h incubation): > 200 µM; IC50 (WM115; 48 h incubation): > 200 µM; IC50 (Colo205; 48 h incubation): > 200 µM; IC50 (Caco2; 48 h incubation): 162 ± 6.1 µM; IC50 (Hep 3b): > 200 µM; IC50 (MCF7): > 200 µM; IC50 (HL60; 48 h incubation): > 200 µM; IC50 (A549): 152 ± 2.8 µM; IC50 (HT29; 48 h incubation): 185.2 ± 1.8 µM; IC50 (NALM6; 48 h incubation): > 200 µM; IC50 (Hela): > 200 µM
NC(=S)n1nc(-c2ccccc2)cc1O [1c],,,,,2.04,> 200,94 ± 2.4,> 200,110 ± 8.9,> 200,> 200,> 200,> 200,> 200,> 200,> 200,> 200,> 200,152 ± 26.7,> 200,
Cc1cc(C)n(C(N)=S)n1 [1a],,,,,2.32,> 200,124 ± 4.8,> 200,111 ± 9.6,> 200,> 200,> 200,> 200,> 200,> 200,> 200,> 200,> 200,> 200,> 200,
Cc1cc(O)n(C(N)=S)n1 [1d],,,,,1.29,> 200,> 200,> 200,99.1 ± 5.7,> 200,90.9 ± 10.2,> 200,> 200,> 200,> 200,> 200,> 200,> 200,> 200,> 200,
CCc1cc(CC)n(C(N)=S)n1 [1b],,,,,2.51,> 200,100 ± 4.6,> 200,114 ± 11.3,> 200,> 200,> 200,> 200,> 200,> 200,> 200,> 200,> 200,> 200,> 200,
"Cc1ccc(C(C)C)cc1.Cc1ccc(C(C)C)cc1.[Cl][Ru][Cl].[Cl][Ru][Cl] [compound 4, dichloro(p-cymene)ruthenium(II), reference compound]",> 200,120 ± 7.2,168 ± 7,108 ± 3.4,,,,,,,,,,,,,,,,,IC50 (SW620; 48 h incubation): > 200 µM; IC50 (WM115; 48 h incubation): > 200 µM; IC50 (Colo205; 48 h incubation): > 200 µM; IC50 (Caco2; 48 h incubation): > 200 µM; IC50 (Hep 3b): 167 ± 6.8 µM; IC50 (MCF7): > 200 µM; IC50 (HL60; 48 h incubation): > 200 µM; IC50 (A549): > 200 µM; IC50 (HT29; 48 h incubation): > 200 µM; IC50 (NALM6; 48 h incubation): > 200 µM; IC50 (Hela): > 200 µM
